Measured values taken from patent US20050107473A1, “Process for producing tert-leucine” (AJINOMOTO CO. INC, priority 2002, published 2005).

Assay: solubility of L-tert-leucine in aqueous solutions
Format: physicochemical
Details: 10° C.

With `CC(C)(C)[C@H](N)C(=O)O` [L-tert-leucine] the “solubility in 1N aqueous hydrochloric acid solution” value (1N aqueous hydrochloric acid solution) was 20.4 wt % and the solubility in water (water) was 12.7 wt %.
